Laboratory results published in patent US20070128217A1 (priority 2003, published 2007).

Key:
[1] = system: control sera (pooled serum of ten healthy LUMC hospital workers; commercial negative donor pooled serum from the Dutch bloodbank); format: binding, human; set-up: Binding of Control serum LUMC to linear peptides / Binding of Control serum Blood-bank to linear peptides / Binding of Control serum LUMC to looped peptides / Binding of Control Serum Blood-Bank to Looped peptides / Binding of Control serum LUMC to linear peptides of the protein M of SARS-CoV Urbani / Binding of Control serum Blood-bank to linear peptides of the protein M of SARS-CoV Urbani / Binding of Control serum LUMC to looped peptides of the protein M of SARS-CoV Urbani / Binding of Control Serum Blood-Bank to Looped peptides of the protein M of SARS-CoV Urbani: unit not given here
[2] = system: antibodies in sera from SARS patients (sera 1a, 1b, 2, 6, 37, 62, London, SARS-yellow, SARS-green); format: binding, human; set-up: Binding of serum 6 to linear peptides of protein X1 of SARS-CoV Urbani / Binding of serum 37 to linear peptides of protein X1 of SARS-CoV Urbani / Binding of serum 6 to looped/cyclic peptide (PEPSCAN-ELISA) / Binding of serum 37 to looped/cyclic peptide (PEPSCAN-ELISA) / Binding of serum 37 to looped/cyclic peptides of protein X1 of SARS-CoV Urbani / Binding of serum 6 to linear peptides of protein X2 / Binding of serum 37 to linear peptides of protein X2 / Binding of serum 37 to looped/cyclic peptides of protein X2 of SARS-CoV Urbani / Binding of serum 6 to linear peptides of protein M of SARS-CoV Urbani / Binding of serum 37 to linear peptides of protein M of SARS-CoV Urbani / Binding of serum 6 to looped/cyclic peptides of protein M of SARS-CoV Urbani / Binding of serum 37 to looped/cyclic peptides of protein M of SARS-CoV Urbani / Binding of serum 6 to linear peptides of protein X3 of SARS-CoV Urbani / Binding of serum 37 to linear peptides of protein X3 of SARS-CoV Urbani / Binding of serum 37 to looped/cyclic peptides of protein X3 of SARS-CoV Urbani / Binding of serum 6 to linear peptides of protein X4 of SARS-CoV Urbani / Binding of serum 37 to linear peptides of protein X4 of SARS-CoV Urbani / Binding of serum 37 to looped/cyclic peptides of protein X4 of SARS-CoV Urbani / Binding of serum 6 to linear peptides of protein X5 of SARS-CoV Urbani / Binding of serum 37 to linear peptides of protein X5 of SARS-CoV Urbani / Binding of serum 37 to looped/cyclic peptides of protein X5 of SARS-CoV Urbani / Binding of serum 6 to linear peptides of protein N of SARS-CoV Urbani / Binding of serum 37 to linear peptides of protein N of SARS-CoV Urbani / Binding of serum 6 to linear peptide (PEPSCAN-ELISA) / Binding of serum 1a to looped/cyclic peptides of protein N of SARS-CoV Urbani / Binding of serum 1b to looped/cyclic peptides of protein N of SARS-CoV Urbani / Binding of serum 2 to looped/cyclic peptides of protein N of SARS-CoV Urbani / Binding of serum 6 to looped/cyclic peptides of protein N of SARS-CoV Urbani / Binding of serum 37 to looped/cyclic peptides of protein N of SARS-CoV Urbani / Binding of serum 62 to looped/cyclic peptides of protein N of SARS-CoV Urbani / Binding of serum London to looped/cyclic peptides of protein N of SARS-CoV Urbani / Binding of serum SARS-green to looped/cyclic peptides of protein N of SARS-CoV Urbani: unit not given here
[3] = system: rabbit serum obtained by immunizing a rabbit with the SARS-CoV strain Frankfurt 1; format: binding; set-up: Binding of a rabbit serum to linear peptides / Binding of a rabbit serum to looped peptides / Rabbit serum linear peptides / Rabbit serum looped peptides / Binding of a rabbit serum to linear peptides of protein N of SARS-CoV Urbani (Rabbit serum linear peptides) / Binding of a rabbit serum to looped/cyclic peptides of protein N of SARS-CoV Urbani (Rabbit serum looped peptides): unit not given here

Sequence	Binding of Control Serum Blood-Bank to Looped peptides [1]	Binding of Control serum Blood-bank to linear peptides [1]	Binding of Control serum LUMC to linear peptides [1]	Binding of Control serum LUMC to looped peptides [1]	Binding of serum 1a to linear peptides of protein X1 of SARS-CoV Urbani [2]	Binding of serum 1a to looped/cyclic peptide (PEPSCAN-ELISA) [2]	Binding of serum 1b to linear peptides of protein X1 of SARS-CoV Urbani [2]	Binding of serum 1b to looped/cyclic peptide (PEPSCAN-ELISA) [2]	Binding of serum 2 to linear peptides of protein X1 of SARS-CoV Urbani [2]	Binding of serum 2 to looped/cyclic peptide (PEPSCAN-ELISA) [2]	Binding of serum 6 to linear peptides of protein X1 of SARS-CoV Urbani [2]	Binding of serum 6 to looped/cyclic peptide (PEPSCAN-ELISA) [2]	Binding of serum 37 to linear peptides of protein X1 of SARS-CoV Urbani [2]	Binding of serum 37 to looped/cyclic peptide (PEPSCAN-ELISA) [2]	Binding of serum 62 to linear peptides of protein X1 of SARS-CoV Urbani [2]	Binding of serum 62 to looped/cyclic peptide (PEPSCAN-ELISA) [2]	Binding of serum London to linear peptides of protein X1 of SARS-CoV Urbani [2]	Binding of serum London to looped/cyclic peptide (PEPSCAN-ELISA) [2]	Binding of serum SARS-green to linear peptides of protein X1 of SARS-CoV Urbani [2]	Binding of serum SARS-green to looped/cyclic peptide (PEPSCAN-ELISA) [2]	other results
ALIYFLQCINACRII	0.5	0.5	0.5	0.3	0.6	0.3	0.6	0.2	0.5	0.4	0.4	0.9	0.7	0.3	0.6	0.3	0.3	1.3	0.1	0.3	Binding of serum SARS-yellow to linear peptides of protein X1 of SARS-CoV Urbani [2]: 0.4; Binding of serum SARS-yellow to looped/cyclic peptide (PEPSCAN-ELISA) [2]: 0.1; Binding of a rabbit serum to linear peptides [3]: 0.7; Binding of a rabbit serum to looped peptides [3]: 0.6
ALNKRWQLALYKGFQ	0.9	0.6	0.6	0.8	0.7	0.8	0.6	0.6	0.5	0.7	0.5	0.6	0.6	0.6	0.5	0.7	0.2	0.3	0.2	0.4	Binding of serum SARS-yellow to linear peptides of protein X1 of SARS-CoV Urbani [2]: 0.4; Binding of serum SARS-yellow to looped/cyclic peptide (PEPSCAN-ELISA) [2]: 0.6; Recognition of the peptide by the rabbit serum [3]: recognized
ALTCTSTHFAFACAD	0.9	0.7	0.8	0.8																	Binding of serum 1a to linear peptides of protein X4 of SARS-CoV Urbani [2]: 0.8; Binding of serum 1a to looped/cyclic peptides of protein X4 of SARS-CoV Urbani [2]: 0.8; Binding of serum 1b to linear peptides of protein X4 of SARS-CoV Urbani [2]: 0.8; Binding of serum 1b to looped/cyclic peptides of protein X4 of SARS-CoV Urbani [2]: 0.7; Binding of serum 2 to linear peptides of protein X4 of SARS-CoV Urbani [2]: 0.5; Binding of serum 2 to looped/cyclic peptides of protein X4 of SARS-CoV Urbani [2]: 0.7; Binding of serum 6 to linear peptides of protein X4 of SARS-CoV Urbani [2]: 0.6; Binding of serum 6 to looped/cyclic peptides of protein X4 of SARS-CoV Urbani [2]: 0.7; Binding of serum 37 to linear peptides of protein X4 of SARS-CoV Urbani [2]: 0.9; Binding of serum 37 to looped/cyclic peptides of protein X4 of SARS-CoV Urbani [2]: 0.9; Binding of serum 62 to linear peptides of protein X4 of SARS-CoV Urbani [2]: 0.9; Binding of serum 62 to looped/cyclic peptides of protein X4 of SARS-CoV Urbani [2]: 0.9; Binding of serum London to linear peptides of protein X4 of SARS-CoV Urbani [2]: 0.8; Binding of serum London to looped/cyclic peptides of protein X4 of SARS-CoV Urbani [2]: 0.3; Binding of serum SARS-green to linear peptides of protein X4 of SARS-CoV Urbani [2]: 0.8; Binding of serum SARS-green to looped/cyclic peptides of protein X4 of SARS-CoV Urbani [2]: 0.8; Binding of serum SARS-yellow to linear peptides of protein X4 of SARS-CoV Urbani [2]: 0.7; Binding of serum SARS-yellow to looped/cyclic peptides of protein X4 of SARS-CoV Urbani [2]: 0.8; Rabbit serum linear peptides [3]: 0.6; Rabbit serum looped peptides [3]: 0.6
ALYKGFQFICNLLLL	0.5	0.6	0.5	0.5	0.6	0.4	0.5	0.3	0.4	0.3	0.4	1.3	0.5	0.4	0.5	0.4	0.2	1.4	0.2	0.2	Binding of serum SARS-yellow to linear peptides of protein X1 of SARS-CoV Urbani [2]: 0.5; Binding of serum SARS-yellow to looped/cyclic peptide (PEPSCAN-ELISA) [2]: 0.4; Binding of a rabbit serum to linear peptides [3]: 0.6; Binding of a rabbit serum to looped peptides [3]: 0.4
